Data as given in publication PMC7048748, “Anxiolytic Drug FGIN-1-27 Ameliorates Autoimmunity by Metabolic Reprogramming of Pathogenic Th17 Cells” (Scientific Reports, 2020).

Tested on: Th17 cells
Test: Lipidomics of Th17 cells
Type: cell-based, mouse
Parameters: key to nCE(16:0) / nCE(18:2) / nDCER(22:0) / nDCER[FA14:0] / nFFA(12:0) / nFFA(14:1) / nFFA(18:4) / nCE(22:0) / nCE(22:6) / nCE(24:1) / nCE[FA14:1] / nCE(12:0) / nCE[FA16:0] / nCE[FA17:0] / nCE[FA18:2] / nCE[FA22:6]: mole percent of each fatty acid within its lipid class; key to nDCER[FA18:1]: mole percent of fatty acid within lipid class
Method: Specific cholesterol precursors like desmosterol and oxysterols, such as 7β, 27-dihydroxycholesterol (7β, 27-OHC), have been identified as ligands for RORγt[21],[22] and shown to modulate Th17 differentiation. […] Next, we extended our studies to lipid metabolites and profiled the lipidome of Th17 cells treated with DMSO or FGIN-1-27.
(a) Quantitation of cholesterol esters, triacylglycerols (TAGs), phosphatidylethanolamine (PE) and phosphatidylcholine (PC) in Th17 cells 72 hours after treatment with FGIN-1-27. The error bars represent SD. (b) Heat map showing fatty acid composition (mole percent) for different lipid classes after treatment with FGIN-1-27. (c) Pie charts showing proportions of different fatty acid classes namely PUFAs, MUFAs, ODD and SFAs within the cholesterol esters. (d) Transcript analysis for CD5L 72 hours post treatment with FGIN-1-27. The error bars represent SD.
Th17 cells were differentiated from naïve purified CD4 T cells and treated with either FGIN-1-27 (10 µM) or DMSO during polarization. 10 million cells/treatment were harvested and snap frozen. […] The extracts were concentrated under nitrogen and reconstituted in 0.25 mL of dichloromethane:methanol (50:50) containing 10 mM ammonium acetate. The extracts were placed in vials for infusion-MS analyses, performed on a SelexION equipped Sciex 5500 QTRAP using both positive and negative mode electrospray. Each sample was subjected to 2 analyses, with IMS-MS conditions optimized for lipid classes monitored in each analysis. The 5500 QTRAP was operated in MRM mode to monitor the transitions for over 1,100 lipids from up to 14 lipid classes. Individual lipid species were quantified based on the ratio of signal intensity for target compounds to the signal intensity for an assigned internal standard of known concentration. Lipid class concentrations were calculated from the sum of all molecular species within a class, and fatty acid compositions were determined by calculating the proportion of individual fatty acids within each class.

CCCCCCN(CCCCCC)C(=O)Cc1c(-c2ccc(F)cc2)[nH]c2ccccc12 [FGIN-1-27, N, N-di-n-hexyl 2-(4-fluorophenyl) indole-3-acetamide]
nDAG(15:0/18:2) (Th17 cells, 10 µM): 0.0745
nDAG(16:0/16:0) (Th17 cells, 10 µM): 19.5066
nDAG(16:0/16:1) (Th17 cells, 10 µM): 3.679
nDAG(16:0/18:0) (Th17 cells, 10 µM): 17.7482
nDAG(16:0/18:1) (Th17 cells, 10 µM): 17.8834
nDAG(16:0/18:2) (Th17 cells, 10 µM): 1.3367
nDAG(16:0/18:3) (Th17 cells, 10 µM): 0.06918
nDAG(16:0/20:3) (Th17 cells, 10 µM): 2.168
nDAG(16:0/20:4) (Th17 cells, 10 µM): 0.4462
nDAG(16:0/20:5) (Th17 cells, 10 µM): 0.02527
nDAG(16:0/22:5) (Th17 cells, 10 µM): 0.2343
nDAG(16:0/22:6) (Th17 cells, 10 µM): 0.3639
nDAG(16:1/16:1) (Th17 cells, 10 µM): 0.2383
nDAG(16:1/18:0) (Th17 cells, 10 µM): 0.9172
nDAG(16:1/18:1) (Th17 cells, 10 µM): 1.986
nDAG(16:1/18:2) (Th17 cells, 10 µM): 0.2498
nDAG(16:1/18:3) (Th17 cells, 10 µM): 0.05893
nDAG(16:1/20:0) (Th17 cells, 10 µM): 0.281
nDAG(16:1/20:2) (Th17 cells, 10 µM): 0.05259
nDAG(16:1/20:4) (Th17 cells, 10 µM): 0.0501
nDAG(16:1/22:6) (Th17 cells, 10 µM): 0.1384
nDAG(18:0/18:1) (Th17 cells, 10 µM): 4.793
nDAG(18:0/18:2) (Th17 cells, 10 µM): 1.2841
nDAG(18:0/18:3) (Th17 cells, 10 µM): 0.04099
nDAG(18:0/22:6) (Th17 cells, 10 µM): 0.5166
nDAG(18:1/18:1) (Th17 cells, 10 µM): 5.728
nDAG(18:1/18:2) (Th17 cells, 10 µM): 1.367
nDAG(18:1/20:1) (Th17 cells, 10 µM): 0.6608
nDAG(18:1/20:2) (Th17 cells, 10 µM): 0.298
nDAG(18:1/20:3) (Th17 cells, 10 µM): 0.3254
nDAG(18:1/20:4) (Th17 cells, 10 µM): 0.3507
nDAG(18:1/20:5) (Th17 cells, 10 µM): 0.04364
nDAG(18:1/22:4) (Th17 cells, 10 µM): 0.1472
nDAG(18:1/22:5) (Th17 cells, 10 µM): 0.2687
nDAG(18:1/22:6) (Th17 cells, 10 µM): 0.3639
nDAG(18:2/18:3) (Th17 cells, 10 µM): 0.01794
nDAG(18:2/20:3) (Th17 cells, 10 µM): 0.05124
nDAG(18:2/20:4) (Th17 cells, 10 µM): 0.02818
nDAG(18:2/20:5) (Th17 cells, 10 µM): 0.009187
nDAG(18:2/22:4) (Th17 cells, 10 µM): 0.01566
nDAG(18:2/22:5) (Th17 cells, 10 µM): 0.004594
nDAG(18:2/22:6) (Th17 cells, 10 µM): 0.04424
nDAG(20:0/20:0) (Th17 cells, 10 µM): 0.1788
nDAG[FA12:0] (Th17 cells, 10 µM): 0.4433
nDAG[FA14:0] (Th17 cells, 10 µM): 7.546
nDAG[FA14:1] (Th17 cells, 10 µM): 0.2449
nDAG[FA15:0] (Th17 cells, 10 µM): 0.1819
nDAG[FA16:0] (Th17 cells, 10 µM): 46.2571
nDAG[FA16:1] (Th17 cells, 10 µM): 4.564
nDAG[FA18:0] (Th17 cells, 10 µM): 12.8033
nDAG[FA18:1] (Th17 cells, 10 µM): 21.7078
nDAG[FA18:2] (Th17 cells, 10 µM): 2.36
nDAG[FA18:3] (Th17 cells, 10 µM): 0.09864
nDAG[FA20:0] (Th17 cells, 10 µM): 0.4502
nDAG[FA20:1] (Th17 cells, 10 µM): 0.3304
nDAG[FA20:2] (Th17 cells, 10 µM): 0.1753
nDAG[FA20:3] (Th17 cells, 10 µM): 1.272
nDAG[FA20:4] (Th17 cells, 10 µM): 0.4517
nDAG[FA20:5] (Th17 cells, 10 µM): 0.03905
nDAG[FA22:4] (Th17 cells, 10 µM): 0.08141
nDAG[FA22:5] (Th17 cells, 10 µM): 0.2538
nDAG[FA22:6] (Th17 cells, 10 µM): 0.7392
nDCER (Th17 cells, 10 µM): 0.1046
nDCER(14:0) (Th17 cells, 10 µM): 1.585
nDCER(16:0) (Th17 cells, 10 µM): 30.1076
nDCER(18:0) (Th17 cells, 10 µM): 3.38
nDCER(18:1) (Th17 cells, 10 µM): 0.4226
nDCER(20:0) (Th17 cells, 10 µM): 4.543
nDCER(20:1) (Th17 cells, 10 µM): 0.06424
nDCER(22:0) (Th17 cells, 10 µM): 7.184
nDCER(22:1) (Th17 cells, 10 µM): 1.69
nDCER(24:0) (Th17 cells, 10 µM): 25.6706
nDCER(24:1) (Th17 cells, 10 µM): 24.1916
nDCER(26:0) (Th17 cells, 10 µM): 0.1056
nDCER(26:1) (Th17 cells, 10 µM): 1.0564
nDCER[FA14:0] (Th17 cells, 10 µM): 1.585
nDCER[FA16:0] (Th17 cells, 10 µM): 30.1076
nDCER[FA18:0] (Th17 cells, 10 µM): 3.38
nDCER[FA18:1] (Th17 cells, 10 µM): 0.4226
nDCER[FA20:0] (Th17 cells, 10 µM): 4.543
nDCER[FA20:1] (Th17 cells, 10 µM): 0.06424
nDCER[FA22:0] (Th17 cells, 10 µM): 7.184
nDCER[FA22:1] (Th17 cells, 10 µM): 1.69
nDCER[FA24:0] (Th17 cells, 10 µM): 25.6706
nDCER[FA24:1] (Th17 cells, 10 µM): 24.1916
nDCER[FA26:0] (Th17 cells, 10 µM): 0.1056
nDCER[FA26:1] (Th17 cells, 10 µM): 1.0564
nFFA (Th17 cells, 10 µM): 4.287
nFFA(12:0) (Th17 cells, 10 µM): 1.325
nFFA(14:0) (Th17 cells, 10 µM): 3.367
nFFA(14:1) (Th17 cells, 10 µM): 0.5145
nFFA(15:0) (Th17 cells, 10 µM): 1.588
nFFA(16:0) (Th17 cells, 10 µM): 33.0903
nFFA(16:1) (Th17 cells, 10 µM): 1.393
nFFA(17:0) (Th17 cells, 10 µM): 2.524
nFFA(18:0) (Th17 cells, 10 µM): 24.6299
nFFA(18:1) (Th17 cells, 10 µM): 8.8316
nFFA(18:2) (Th17 cells, 10 µM): 4.005
nFFA(18:3) (Th17 cells, 10 µM): 1.526
nFFA(18:4) (Th17 cells, 10 µM): 0.3971
phosphatidylethanolamine (PE) and phosphatidylcholine (PC) (not statistically significant): modestly increased
lipid metabolites with differential levels (of 1300 lipid metabolites, p < 0.05): 39.6%
